Literature values in patent publication US20170326147A1, “INHIBITING BLOOD PRESSURE DROP IN THE TREATMENT OF ERECTILE DYSFUNCTION” (FORMUREX, INC., priority 2014, published 2017).
Where a name gives a salt, the structure may show the parent alone.

Assays:
[1] = test system: plasma proteins; conditions: independent of total drug concentration

| bound to plasma proteins [1] | Tmax average, fasting subjects (fasting) | delay of mean Tmax by food in the stomach (fed) | bioavailability (mean absolute), oral administration (oral, absorption through the digestive tract) | Compound |
| --- | --- | --- | --- | --- |
| approximately 96% |  |  |  | CCCc1nn(C)c2c(=O)[nH]c(-c3cc(S(=O)(=O)N4CCNCC4)ccc3OCC)nc12 [N-desmethyl metabolite, N-desmethyl sildenafil] |
| approximately 96% | about 1 hr | about 1.1 hr | about 40% | CCCc1nn(C)c2c(=O)[nH]c(-c3cc(S(=O)(=O)N4CCN(C)CC4)ccc3OCC)nc12 [sildenafil citrate] |
